Measured values as given in patent publication US8901114B2, “Oxathiazine derivatives substituted with carbocycles or heterocycles, method for producing same, drugs containing said compounds, and use thereof” (Sanofi, priority 2011, dated 2014).

The compounds below were run against human 11β-HSD1 microsome fraction (Homo sapiens, UniProt P28845) (assay: Enzymatic 11beta-HSD1 test (SPA-based detection)). Conditions: human 11β-HSD1 microsomes, [1,2-3H]-cortisone, NADPH, 37° C., 1 hour; read-out: IC50 (nM), Biological activity in nanomolar.
Format: biochemical
Description: Enzymatic 11beta-HSD1 test:
First of all, 20 μl of the human 11β-HSD1 microsome fraction (0.2 μg of protein), prepared in 50 mM HEPES, 0.1% BSA (w/v), were applied to a plate with 384 wells. The test compounds (0.09 μl) were applied to the assay plate in 100% DMSO. The reaction was started by addition of 20 μl of [1,2-^3H]-cortisone (0.1 μCi/[…]) in assay buffer comprising 25 mM HEPES, 100 mM KCl, 5 mM NaCl, 2 mM MgCl2 and 0.25 mM NADPH. The plate was agitated at 37° C. for 1 hour. At the same time, a stop solution comprising 20 mg/ml SPA-PVT beads, 1.6 mg/ml monoclonal cortisol antibody and 0.01 mM SSR110887 (inhibitor from the Biovitrium patent) in 50 mM HEPES, 1 M NaCl and 1 M KCl was stirred at room temperature. To stop the reaction, 25 μl of the stop solution were added to each well. The plate was agitated gently at room temperature for 1 further hour and then centrifuged at 500 gav for […], in order that the SPA beads could settle out. […] The comparative compound was glycyrrhetinic acid.
Protein and radioactive substrate were dispensed with a Biomek FX unit (Beckman Coulter) for handling liquids. The test compounds were added with a Cybi-Well equipped with a 90 nl pin tool (CyBio).
Lit.: Solly S, Mundt S S, Zokian H J, Juy-Fang Ding G, Hermanowski-Vosatka A, Strulovici B and Zheng W. High-throughput screening of 11β-Hydroxysteroid dehydrogenase type 1 in scintillation proximity format.

human 11β-HSD1 microsome fraction, sequence (P28845 whole entry): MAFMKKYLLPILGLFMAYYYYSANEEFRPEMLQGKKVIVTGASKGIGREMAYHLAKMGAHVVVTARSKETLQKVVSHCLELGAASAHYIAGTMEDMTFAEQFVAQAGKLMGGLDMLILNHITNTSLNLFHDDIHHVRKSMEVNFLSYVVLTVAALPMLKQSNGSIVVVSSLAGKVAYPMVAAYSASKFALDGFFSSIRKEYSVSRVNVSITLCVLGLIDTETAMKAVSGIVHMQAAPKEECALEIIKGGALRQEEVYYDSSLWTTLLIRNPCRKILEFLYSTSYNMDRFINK

SMILES | IC50 [nM]
CC12CCC(NC3=NS(=O)(=O)[C@@H]4CCCC[C@@H]4O3)(CC1)CC2 [Example 13, ((4aS,8aR)-1,1-Dioxo-4a,5,6,7,8,8a-hexahydro-1H-1lambda6-benzo[1,4,3]oxathiazin-3-yl)-(4-methyl-bicyclo[2.2.2]oct-1-yl)-amine] | 5
CC1CC(NC2=NS(=O)(=O)C3CCCCC3O2)CC(C)(C)C1 (stereo not shown) [Example 23, (1,1-Dioxo-4a,5,6,7,8,8a-hexahydro-1H-1lambda6-benzo[1,4,3]oxathiazin-3-yl)-(3,3,5-trimethyl-cyclohexyl)-amine] | 20
C[C@@H]1[C@@H](NC2=NS(=O)(=O)C3CCCCC3O2)C[C@H]2C[C@@H]1C2(C)C (stereo partly drawn) [Example 56, (1,1-Dioxo-4a,5,6,7,8,8a-hexahydro-1H-1lambda6-benzo[1,4,3]oxathiazin-3-yl)-((1S,2S,3S,5R)-2,6,6-trimethyl-bicyclo[3.1.1]hept-3-yl)-amine] | 16
CC(C)CC(CC(C)C)NC1=NS(=O)(=O)C2CCCCC2O1 (stereo not shown) [Example 55, (1,1-Dioxo-4a,5,6,7,8,8a-hexahydro-1H-1lambda6-benzo[1,4,3]oxathiazin-3-yl)-(1-isobutyl-3-methyl-butyl)-amine] | 670
O=S1(=O)N=C(NN2CC3CCCC3C2)OC2CCCCC21 (stereo not shown) [Example 65, (1,1-Dioxo-4a,5,6,7,8,8a-hexahydro-1H-1lambda6-benzo[1,4,3]oxathiazin-3-yl)-(hexahydro-cyclopenta[c]pyrrol-2-yl)-amine] | 308
CC1(C)[C@@H]2CC[C@@]1(C)[C@@H](NC1=NS(=O)(=O)C3CCCCC3O1)C2 (stereo partly drawn) [Example 36, (1,1-Dioxo-4a,5,6,7,8,8a-hexahydro-1H-1lambda6-benzo[1,4,3]oxathiazin-3-yl)-((1R,2S,4R)-1,7,7-trimethyl-bicyclo[2.2.1]hept-2-yl)-amine] | 59
O=S1(=O)N=C(N[C@H]2CC[C@H](O)CC2)OC2CCCCC21 (stereo partly shown) [Example 81, 4-(1,1-Dioxo-4a,5,6,7,8,8a-hexahydro-1H-1lambda6-benzo[1,4,3]oxathiazin-3-ylamino)-cyclohexanol] | 355
O=S1(=O)N=C(NCC2CCCCO2)OC2CCCCC21 (stereo not shown) [Example 47, (1,1-Dioxo-4a,5,6,7,8,8a-hexahydro-1H-1lambda6-benzo[1,4,3]oxathiazin-3-yl)-(tetrahydro-pyran-2-ylmethyl)-amine] | 165
O=S1(=O)N=C(N[C@@H]2C[C@H]3CC[C@@H]2C3)OC2CCCCC21 (stereo partly drawn) [Example 62, (1R,2R,4S)-Bicyclo[2.2.1]hept-2-yl-((5S,6R)-1,1-dioxo-4a,5,6,7,8,8a-hexahydro-1H-1lambda6-benzo[1,4,3]oxathiazin-3-yl)-amine] | 43
CC1(C)[C@@H]2CC[C@@]1(C)[C@H](O)[C@H]2NC1=NS(=O)(=O)C2CCCCC2O1 (stereo partly drawn) [Example 38, (1R,2S,3S,4S)-3-(1,1-Dioxo-4a,5,6,7,8,8a-hexahydro-1H-1lambda6-benzo[1,4,3]oxathiazin-3-ylamino)-1,7,7-trimethyl-bicyclo[2.2.1]heptan-2-ol] | 570
CC1(C)[C@@H]2CC[C@@]1(C)[C@H](NC1=NS(=O)(=O)C3CCCCC3O1)C2 (single isomer, unassigned) [Example 14] | 236
O=S1(=O)N=C(NC2CCSc3ccccc32)OC2CCCCC21 (stereo not shown) [Example 48, (1,1-Dioxo-4a,5,6,7,8,8a-hexahydro-1H-1lambda6-benzo[1,4,3]oxathiazin-3-yl)-thiochroman-4-yl-amine] | 93
CC12CCCCC1S(=O)(=O)N=C(NC1CCCCC1)O2 (stereo not shown) [Example 89, Cyclohexyl-(4a-methyl-1,1-dioxo-4a,5,6,7,8,8a-hexahydro-1H-1lambda6-benzo[1,4,3]oxathiazin-3-yl)-amine] | 49
CC12CCC(NC3=NS(=O)(=O)C4CCCC4O3)(CC1)CC2 (stereo not shown) [Example 64, (1,1-Dioxo-1,4a,5,6,7,7a-hexahydro-1lambda6-cyclopenta[1,4,3]oxathiazin-3-yl)-(4-methyl-bicyclo[2.2.2]oct-1-yl)-amine] | 38
O=S1(=O)N=C(NC2CC[C@H]3CC[C@@H]2C3)OC2CCCCC21 (stereo partly drawn) [Example 54, (1R,5R)-Bicyclo[3.2.1]oct-2-yl-(1,1-dioxo-4a,5,6,7,8,8a-hexahydro-1H-1lambda6-benzo[1,4,3]oxathiazin-3-yl)-amine] | 29
CC12CCC(NC3=NS(=O)(=O)[C@H]4CCCC[C@H]4O3)(CC1)CC2 [Example 5, ((4aR,8aS)-1,1-Dioxo-4a,5,6,7,8,8a-hexahydro-1H-1lambda6-benzo[1,4,3]oxathiazin-3-yl)-(4-methyl-bicyclo[2.2.2]oct-1-yl)-amine] | 8
CC(C)[C@]12CC(NC3=NS(=O)(=O)C4CCCCC4O3)[C@H](C)[C@H]1C2 (stereo partly drawn) [Example 53, (1,1-Dioxo-4a,5,6,7,8,8a-hexahydro-1H-1lambda6-benzo[1,4,3]oxathiazin-3-yl)-((1S,4R,5R)-1-isopropyl-4-methyl-bicyclo[3.1.0]hex-3-yl)-amine] | 54
O=S1(=O)N=C(NC(C2CC2)C2CC2)OC2CCCCC21 (stereo not shown) [Example 39, Dicyclopropylmethyl-(1,1-dioxo-4a,5,6,7,8,8a-hexahydro-1H-1lambda6-benzo[1,4,3]oxathiazin-3-yl)-amine] | 440
O=S1(=O)N=C(N[C@@H]2CCCC[C@H]2CO)O[C@H]2CCCC[C@H]21 [Example 59, [(1R,2R)-2-((4aS,8aR)-1,1-Dioxo-4a,5,6,7,8,8a-hexahydro-1H-1lambda6-benzo[1,4,3]oxathiazin-3-ylamino)-cyclohexyl]-methanol] | 658
C[C@@H](NC1=NS(=O)(=O)C2CCCCC2O1)C1CCCCC1 (stereo partly drawn) [Example 29, ((R)-1-Cyclohexyl-ethyl)-(1,1-dioxo-4a,5,6,7,8,8a-hexahydro-1H-1lambda6-benzo[1,4,3]oxathiazin-3-yl)-amine] | 275
CC(C)C(NC1=NS(=O)(=O)C2CCCCC2O1)c1cccs1 (stereo not shown) [Example 25, (1,1-Dioxo-4a,5,6,7,8,8a-hexahydro-1H-1lambda6-benzo[1,4,3]oxathiazin-3-yl)-(2-methyl-1-thiophen-2-yl-propyl)-amine] | 121
CC1(C)C2CCC1C(NC1=NS(=O)(=O)C3CCCCC3O1)C2O (stereo not shown) [Example 41, 3-(1,1-Dioxo-4a,5,6,7,8,8a-hexahydro-1H-1lambda6-benzo[1,4,3]oxathiazin-3-ylamino)-7,7-dimethyl-bicyclo[2.2.1]heptan-2-ol] | 497
CC1(C)[C@@H]2CC[C@@]1(C)[C@H](NC1=NS(=O)(=O)C3CCCCC3O1)C2 (single isomer, unassigned) [Example 9] | 5
O=S1(=O)N=C(NC23CCC(CC2)CC3)OC2CCCC21 (stereo not shown) [Example 72, Bicyclo[2.2.2]oct-1-yl-(1,1-dioxo-1,4a,5,6,7,7a-hexahydro-1lambda6-cyclopenta[1,4,3]oxathiazin-3-yl)-amine] | 74
O=S1(=O)N=C(NN2CCCCCC2)OC2CCCCC21 (stereo not shown) [Example 66, Azepan-1-yl-(1,1-dioxo-4a,5,6,7,8,8a-hexahydro-1H-1lambda6-benzo[1,4,3]oxathiazin-3-yl)-amine] | 148
